US20240343704A1, “HALO-SUBSTITUTED AMINO PYRIDINE COMPOUNDS AS INHIBITORS OF THE HAEMATOPOIETIC PROGENITOR KINASE 1 (HPK1)” (priority 2021, published 2024)

Experiments:
[1] = target: T1, Recombinant (1-346) HPK1 (h) (Homo sapiens, UniProt Q92918); experiment: HPK1 Human STE Kinase Enzymatic Radiometric Assay; assay type: biochemical; conditions: read-out: HPK1 IC50 nM Range*
T1 construct: Recombinant (1-346) HPK1 (h) is incubated with 8 mM MOPS pH 7.0
T1 sequence (Q92918 1-346): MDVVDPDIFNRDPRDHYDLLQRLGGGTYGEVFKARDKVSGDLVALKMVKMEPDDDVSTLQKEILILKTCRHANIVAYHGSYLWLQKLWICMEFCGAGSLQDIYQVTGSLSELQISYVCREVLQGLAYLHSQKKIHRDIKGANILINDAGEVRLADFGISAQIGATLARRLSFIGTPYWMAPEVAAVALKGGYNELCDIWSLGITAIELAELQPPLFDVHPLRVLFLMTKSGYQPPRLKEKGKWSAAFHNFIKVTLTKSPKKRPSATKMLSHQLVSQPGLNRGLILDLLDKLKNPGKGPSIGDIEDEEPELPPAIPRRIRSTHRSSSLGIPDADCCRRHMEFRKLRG
Protocol: A stock solution of 10 mM of test compound is prepared in DMSO. The compound plate was prepared by 3-fold and 9-point serial dilutions. […] The reaction is initiated by The addition of the Mg/ATP mix. After incubation for 40 minutes at RT, the reaction is stopped by the addition of phosphoric acid to a concentration of 0.5%.

Lck (h) = Lck (h) (Homo sapiens, UniProt P06239); experiment: Lck Human  Kinase Enzymatic Radiometric Assay; assay type: biochemical; conditions: read-out: Lck IC50 nM Range*
Lck (h), sequence (P06239 whole entry): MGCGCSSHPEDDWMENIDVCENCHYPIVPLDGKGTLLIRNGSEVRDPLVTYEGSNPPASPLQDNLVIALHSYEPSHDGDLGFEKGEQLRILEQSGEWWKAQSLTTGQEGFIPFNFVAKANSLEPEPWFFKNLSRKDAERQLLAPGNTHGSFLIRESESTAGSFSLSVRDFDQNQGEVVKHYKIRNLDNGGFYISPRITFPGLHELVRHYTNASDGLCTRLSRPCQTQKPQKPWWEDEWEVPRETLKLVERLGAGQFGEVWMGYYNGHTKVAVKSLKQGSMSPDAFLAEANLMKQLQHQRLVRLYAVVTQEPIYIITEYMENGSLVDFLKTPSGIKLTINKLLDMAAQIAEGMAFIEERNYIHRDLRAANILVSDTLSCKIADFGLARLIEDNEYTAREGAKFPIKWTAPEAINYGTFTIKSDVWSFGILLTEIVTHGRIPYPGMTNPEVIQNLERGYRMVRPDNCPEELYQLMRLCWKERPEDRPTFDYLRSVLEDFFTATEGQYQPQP
Method in brief: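 Substrate 33P-incorporation measured by scintillation counting after spotting on P30 filtermat and phosphoric acid washes. Human Lck reacted 40 min at RT in 50 mM Tris pH 7.5 with 10 mM MgAcetate, [gamma-33P]-ATP, 250 uM Cdc2 peptide, 0.1 mM EGTA and 0.1 mM Na3VO4.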

Compound	IC50 [1]	IC50 (Lck (h))
C[C@H]1CN(C)CCN1c1ccc(-c2cc(-c3ccc4c(c3)CCNC4=O)c(N)nc2F)cc1 [I-282, (S)-6-(2-amino-5-(4-(2,4-dimethylpiperazin-1-yl)phenyl)-6-fluoropyridin-3-yl)-3,4-dihydroisoquinolin-1(2H)-one]	0.1 to 10 nM	> 1000 nM
CN(C)C1CCN(c2ccc(-c3cc(-c4ccc5c(c4)CCNC5=O)c(N)nc3F)cc2)CC1 [I-283, 6-(2-amino-5-(4-(4-(dimethylamino)piperidin-1-yl)phenyl)-6-fluoropyridin-3-yl)-3,4-dihydroisoquinolin-1(2H)-one]	0.1 to 10 nM	> 1000 nM
C[C@@H]1CN(c2ccc(-c3cc(-c4ccc5c(c4)CCNC5=O)c(N)nc3F)cc2)C[C@H](C)N1C(=O)OC(C)(C)C [I-284, tert-butyl (2R,6S)-4-(4-(6-amino-2-fluoro-5-(1-oxo-1,2,3,4-tetrahydroisoquinolin-6-yl)pyridin-3-yl)phenyl)-2,6-dimethylpiperazine-1-carboxylate]	11 to 100 nM	> 1000 nM
CNCC1Cc2cc(-c3cc(-c4ccc(N5CCOCC5)cc4)c(F)nc3N)ccc2C(=O)N1 (stereo not drawn) [I-285, 6-(2-amino-6-fluoro-5-(4-morpholinophenyl)pyridin-3-yl)-3-((methylamino)methyl)-3,4-dihydroisoquinolin-1(2H)-one]	11 to 100 nM	> 1000 nM
CNCC1Cc2cc(-c3cc(-c4ccc(N5CCN(C(C)C)CC5)cc4)c(F)nc3N)ccc2C(=O)N1 (stereo not drawn) [I-286, 6-(2-amino-6-fluoro-5-(4-(4-isopropylpiperazin-1-yl)phenyl)pyridin-3-yl)-3-((methylamino)methyl)-3,4-dihydroisoquinolin-1(2H)-one]	0.1 to 10 nM	> 1000 nM
Nc1nc(F)c(-c2ccc3c(c2)CCNC3)cc1-c1cc2c(cc1F)C(=O)NCC2 [I-287, 2,2,2-trifluoroacetate]	0.1 to 10 nM	> 1000 nM
CC(C)N1CC(Oc2ccc(-c3cc(-c4ccc5c(c4)CCNC5=O)c(N)nc3F)cc2)C1 [I-288, 6-(2-amino-6-fluoro-5-(4-((1-isopropylazetidin-3-yl)oxy)phenyl)pyridin-3-yl)-3,4-dihydroisoquinolin-1(2H)-one]	0.1 to 10 nM	> 1000 nM
N#Cc1cc(-c2cc(-c3cc4c(cc3F)C(=O)NCC4)c(N)nc2F)ccc1OC1CCNCC1 [I-289, 5-(6-amino-2-fluoro-5-(7-fluoro-1-oxo-1,2,3,4-tetrahydroisoquinolin-6-yl)pyridin-3-yl)-2-(piperidin-4-yloxy)benzonitrile]	11 to 100 nM	> 1000 nM
CC(=O)N1CCC(Oc2ccc(-c3cc(-c4ccc5c(c4)CCNC5=O)c(N)nc3F)cc2F)CC1 [I-290, 6-(5-(4-((1-acetylpiperidin-4-yl)oxy)-3-fluorophenyl)-2-amino-6-fluoropyridin-3-yl)-3,4-dihydroisoquinolin-1(2H)-one]	0.1 to 10 nM	0.1 to 10 nM
CC(C)N1CCC(Oc2ccc(-c3cc(-c4cc5c(cc4F)C(=O)NCC5)c(N)nc3F)cc2C#N)CC1 [I-292, 5-(6-amino-2-fluoro-5-(7-fluoro-1-oxo-1,2,3,4-tetrahydroisoquinolin-6-yl)pyridin-3-yl)-2-((1-isopropylpiperidin-4-yl)oxy)benzonitrile]	0.1 to 10 nM	> 1000 nM
N#Cc1cc(-c2cc(-c3cc4c(cc3F)C(=O)NCC4)c(N)nc2F)ccc1OC1CCN(CC(F)(F)F)CC1 [I-293, 5-(6-amino-2-fluoro-5-(7-fluoro-1-oxo-1,2,3,4-tetrahydroisoquinolin-6-yl)pyridin-3-yl)-2-((1-(2,2,2-trifluoroethyl)piperidin-4-yl)oxy)benzonitrile]	11 to 100 nM	> 1000 nM
COC1(c2ccc(-c3cc(-c4ccc5c(c4)CCNC5=O)c(N)nc3F)cc2)CCN(C(C)C)CC1 [I-294, 6-(2-amino-6-fluoro-5-(4-(1-isopropyl-4-methoxypiperidin-4-yl)phenyl)pyridin-3-yl)-3,4-dihydroisoquinolin-1(2H)-one]	0.1 to 10 nM	> 1000 nM
CC(C)N1CC=C(c2ccc(-c3cc(-c4cc5c(cc4F)C(=O)NCC5)c(N)nc3F)cc2)CC1 [I-295, 6-(2-amino-6-fluoro-5-(4-(1-isopropyl-1,2,3,6-tetrahydropyridin-4-yl)phenyl)pyridin-3-yl)-7-fluoro-3,4-dihydroisoquinolin-1(2H)-one]	0.1 to 10 nM	> 1000 nM
CCN1CC=C(c2ccc(-c3cc(-c4cc5c(cc4F)C(=O)NCC5)c(N)nc3F)cc2)CC1 [I-296, 6-(2-amino-5-(4-(1-ethyl-1,2,3,6-tetrahydropyridin-4-yl)phenyl)-6-fluoropyridin-3-yl)-7-fluoro-3,4-dihydroisoquinolin-1(2H)-one]	0.1 to 10 nM	> 1000 nM

Results, then the compound that gave them:

IC50 [1]	IC50 (Lck (h))	Compound
0.1 to 10 nM	> 1000 nM	Nc1nc(F)c(-c2ccc(C3=CCN(CC4CC4)CC3)cc2)cc1-c1cc2c(cc1F)C(=O)NCC2 [I-297, 6-(2-amino-5-(4-(1-(cyclopropylmethyl)-1,2,3,6-tetrahydropyridin-4-yl)phenyl)-6-fluoropyridin-3-yl)-7-fluoro-3,4-dihydroisoquinolin-1(2H)-one]
11 to 100 nM	> 1000 nM	CNCC1Cc2cc(-c3cc(-c4ccc(Cl)cc4)c(F)nc3N)ccc2C(=O)N1 (stereo not drawn) [I-298, 6-(2-amino-5-(4-chlorophenyl)-6-fluoropyridin-3-yl)-3-((methylamino)methyl)-3,4-dihydroisoquinolin-1(2H)-one]
0.1 to 10 nM	> 1000 nM	CC(C)N1CCc2cc(-c3cc(-c4cc5c(cc4F)C(=O)NCC5)c(N)nc3F)ccc2C1 [I-299, 6-(2-amino-6-fluoro-5-(2-isopropyl-1,2,3,4-tetrahydroisoquinolin-6-yl)pyridin-3-yl)-7-fluoro-3,4-dihydroisoquinolin-1(2H)-one]
0.1 to 10 nM	> 1000 nM	COCCN1CCc2cc(-c3cc(-c4cc5c(cc4F)C(=O)NCC5)c(N)nc3F)ccc2C1 [I-300, 6-(2-amino-6-fluoro-5-(2-(2-methoxyethyl)-1,2,3,4-tetrahydroisoquinolin-6-yl)pyridin-3-yl)-7-fluoro-3,4-dihydroisoquinolin-1(2H)-one]
0.1 to 10 nM	> 1000 nM	CC(C)N1C[C@H]2C[C@@]2(c2ccc(-c3cc(-c4cc(F)c5c(c4)CCNC5=O)c(N)nc3F)cc2)C1 [I-301, 6-(2-amino-6-fluoro-5-(4-((1R,5S)-3-isopropyl-3-azabicyclo[3.1.0]hexan-1-yl)phenyl)pyridin-3-yl)-8-fluoro-3,4-dihydroisoquinolin-1(2H)-one]
0.1 to 10 nM	101 to 1000 nM	CC(C)N1CCC(c2ccc(-c3cc(-c4cc(F)c5c(c4)CCNC5=O)c(N)nc3F)cc2)CC1 [I-302, 6-(2-amino-6-fluoro-5-(4-(1-isopropylpiperidin-4-yl)phenyl)pyridin-3-yl)-8-fluoro-3,4-dihydroisoquinolin-1(2H)-one]
11 to 100 nM	> 1000 nM	COCCN1CCC(Oc2ccc(-c3cc(-c4cc5c(cc4F)C(=O)NCC5)c(N)nc3F)cc2C#N)CC1 [I-303, 5-(6-amino-2-fluoro-5-(7-fluoro-1-oxo-1,2,3,4-tetrahydroisoquinolin-6-yl)pyridin-3-yl)-2-((1-(2-methoxyethyl)piperidin-4-yl)oxy)benzonitrile]
